Test [1] has as its system T-Rex 293 cell line SC3 cells having increased expression of androgen receptor protein due to exposure to doxycycline. Description: Cellular growth inhibition assay, T-Rex 293 SC3 cells with doxycycline (CellTiter-Glo, 72 hours). Format: cell-based. As to conditions: T-Rex 293 SC3 cells with increased androgen receptor expression due to doxycycline (10 ng/mL). The procedure: (§1) The following types of cells were prepared for this experiment: (i) a T-Rex 293 cell line having increased expression of androgen receptor protein due to exposure to doxycycline and (ii) a T-Rex 293 cell line lacking increased expression of androgen receptor protein. Ability of the test compounds to inhibit proliferation of the foregoing cell types was evaluated according to the procedures set forth below.
(§2) The doxycycline-inducible androgen receptor protein expressing cell line was established using the following protocol: T-Rex 293 cells were purchased from Invitrogen (Cat #R71007) and transfected using Lipofectamine 2000 with the wild-type androgen receptor protein sequence cloned into the pcDNA4/TO vector. Transfected cells were selected using 400 μg/mL Zeocin (Invitrogen Cat #R25001). Following selection, single clones were raised and maintained in Dulbecco's Modified Eagle Medium (DMEM) supplemented with 10% w/w Tetracycline-free fetal bovine serum (FBS) and 250 μg/mL Zeocin. Clones were analyzed for expression of androgen receptor protein in the presence and absence of 10 ng/mL doxycycline (Sigma Cat #D9891), and a single doxycycline-inducible clone (hereinafter “SC3”) was selected for use in downstream assays.
(§3) The SC3 cells were seeded on poly-D-lysine coated, black clear-bottom 384-well plates at 2500/well, in 25 μL Phenol Red Free Dulbecco's Modified Eagle Medium (DMEM) supplemented with 10% w/w charcoal-dextran treated fetal bovine serum (FBS) and 1% w/w pen-strep, with or without 10 ng/mL doxycycline. Pen-Strep is a commercially available mixture of penicillin G and streptomycin, which is used in mammalian cell culture media to prevent bacterial contamination. Phenol Red Free Dulbecco's Modified Eagle Medium (DMEM) supplemented with 10% w/w charcoal-dextran treated fetal bovine serum (FBS) and 1% w/w pen-strep, with or without 10 ng/mL doxycycline is herein referred to as Treatment Medium. Following seeding of cells in the plates, the plates were spun at 300×g for 30 seconds, then equilibrated to room temperature for 30 minutes, and then deposited in a humidified tissue culture incubator maintained at 37° C. with 5% CO2.
(§4) At 24 hours after seeding of the cells, dilutions of test compound were prepared in DMSO and dissolved in Treatment Medium, to achieve a final DMSO concentration of 0.5% w/w, thereby providing the Test Compound Solution. A 25 μL aliquot of the Test Compound Solution was added to cells in the well plates. An equal volume of a solution containing DMSO and Treatment Medium was used as a negative control. Following treatment of cells with Test Compound Solution or said equal volume of a solution containing DMSO and Treatment Medium, the plates were spun at 300×g for 30 seconds, and then left in an incubator for 72 hours.
(§5) At the end of the treatment duration, cell viability was quantified with CellTiter-Glo 2.0 reagent (Promega Cat #G9243). For this purpose, plates were equilibrated to room temperature for 30 minutes, and then 25 μL of CellTiter-Glo 2.0 reagent was added to cells in the plate wells. Plates were then agitated on a shaker for two minutes at 500 rpm and subsequently incubated at room temperature for 10 minutes. Following incubation, the plates were spun at 3000×g for 30 seconds, then sealed with an optical adhesive cover, and luminescence readings were measured with an EnVision Plate Reader.
(§6) Data was normalized using zero luminescence for baseline. A four-parameter non-linear regression curve fit was applied to dose-response data in GraphPad Prism data analysis software to determine the half-maximal growth inhibitory concentration (GI50) for each test compound.

For test [2], the system named is T-Rex 293 cell line SC3 cells lacking increased expression of androgen receptor protein. Briefly: Cellular growth inhibition assay, T-Rex 293 SC3 cells without doxycycline (CellTiter-Glo, 72 hours). Format: cell-based. As to conditions: T-Rex 293 cell line SC3 cells not exposed to doxycycline (lacking increased androgen receptor expression). The procedure:
as §1, §2, §3, §4, §5, §6
For orientation: Cellular ATP, detected with luciferase, serves as a proxy for viable cell number.

For the next test, the system named is VCaP cells. Briefly: Cellular growth inhibition assay for VCaP cells (CellTiter-Glo, 72 hours). Format: cell-based, human. The procedure:
VCaP cells were purchased from American Type Cell Culture (ATCC Cat #CRL2876) and then seeded on poly-D-lysine coated, black clear-bottom 384-well plates at 5000/well in 25 μL Dulbecco's Modified Eagle Medium (DMEM) supplemented with 10% w/w Fetal bovine serum (FBS) and 1% w/w Pen-Strep. Pen-Strep is a commercially available mixture of penicillin G and streptomycin, which is used in mammalian cell culture media to prevent bacterial contamination. Dulbecco's Modified Eagle Medium (DMEM) supplemented with 10% w/w fetal bovine serum (FBS) and 1% w/w Pen-Strep is herein referred to as Treatment Medium. Following seeding of cells in the plates, the plates were spun at 300×g for 30 seconds, then equilibrated to room temperature for 30 minutes, and then deposited in a humidified tissue culture incubator maintained at 37° C. with 5% C0-2.
as §4, §5, §6

Read-outs that look alike come from different tables or passages of the source.

The term GI50 denotes the concentration giving 50% growth inhibition. A higher GI50 goes with less potent growth inhibition.

`Cc1sc2c(c1C)C(c1ccc(C3CCC4(CC3)CCN(c3ccc(C(=O)N[C@H]5CC[C@H](Oc6ccc(C#N)c(Cl)c6)CC5)nn3)C4)cc1)=NC(C(F)(F)F)c1nnc(C)n1-2` (mixture of isomers) [I-742]: the concentration for 50% growth inhibition (GI50) in test [1] was more than 3000 nM; in test [2] it was more than 3000 nM; in the test with VCaP cells, less than 500 nM.

On to `Cc1sc2c(c1C)C(c1ccc(NCC3CCN(c4ncc(C(=O)N[C@H]5CC[C@H](Oc6ccc(C#N)c(Cl)c6)CC5)cn4)C3)cc1)=NC(Cc1ncco1)c1nnc(C)n1-2` (mixture of isomers) [I-788], for which the GI50 (in test [1]; in test [2]; in the test with VCaP cells) was less than 500 nM in each case.

`Cc1sc2c(c1C)C(c1ccc(C#CC3CC4(C3)CN(c3ccc(C(=O)N[C@H]5CC[C@H](Oc6ccc(C#N)c(Cl)c6)CC5)nn3)C4)cc1F)=NC(Cc1ncco1)c1nnc(C)n1-2` (mixture of isomers) [I-828, N-[4-(3-chloro-4-cyano-phenoxy)cyclohexyl]-6-[6-[2-[3-fluoro-4-[4,5,13-trimethyl-9-(oxazol-2-ylmethyl)-3-thia-1,8,11,12-tetrazatricyclo[8.3.0.02,6]trideca-2(6),4,7,10,12-pentaen-7-yl]phenyl]ethynyl]-2-azaspiro[3.3]heptan-2-yl]pyridazine-3-carboxamide]: the GI50 in test [1] (72 h) is less than 500 nM; in test [2] (72 h), less than 500 nM; in the test on VCaP cells (Homo sapiens, VCaP, 72 h) it was less than 500 nM.

Turning to `COCC[C@@H]1N=C(c2ccc(C3CCC4(CC3)CCN(c3ccc(C(=O)N[C@H]5CC[C@H](Oc6ccc(C#N)c(Cl)c6)CC5)nn3)C4)cc2)c2c(sc(C)c2C)-n2c(C)nnc21` (single isomer, unassigned) [I-618], the GI50 (in test [1]; in test [2]; in the test on VCaP cells) was less than 500 nM each time.

Take `COCC[C@@H]1N=C(c2ccc(C3CCC4(CC3)CCN(c3ccc(C(=O)N[C@H]5CC[C@H](Oc6ccc(C#N)c(Cl)c6)CC5)nn3)C4)cc2)c2c(sc(C)c2C)-n2c(C)nnc21` (single isomer, unassigned) [I-619]: the results for the GI50 (in test [1]; in test [2]; in the test with VCaP cells) were less than 500 nM, more than 3000 nM and less than 500 nM, respectively.

For the compound `CC[C@@H]1N=C(c2ccc(C3CCC4(CC3)CCN(c3ccc(C(=O)N[C@H]5CC[C@H](Oc6ccc(C#N)c(Cl)c6)CC5)nn3)C4)cc2)c2c(sc(C)c2C)-n2c(C)nnc21` (single isomer, unassigned) [I-633], the results for the GI50 (in test [1]; in test [2]; with VCaP cells) were less than 500 nM, less than 500 nM and 1500 to 3000 nM, respectively.

Turning to `CC[C@@H]1N=C(c2ccc(C3CCC4(CC3)CCN(c3ccc(C(=O)N[C@H]5CC[C@H](Oc6ccc(C#N)c(Cl)c6)CC5)nn3)C4)cc2)c2c(sc(C)c2C)-n2c(C)nnc21` (single isomer, unassigned) [I-634], the GI50 in test [1] is less than 500 nM; in test [2], 500 to 1500 nM; in the test on VCaP cells, less than 500 nM.

Turning to `Cc1sc2c(c1C)C(c1ccc(N3CCC4(CC3)CCN(c3ccc(C(=O)N[C@H]5CC[C@H](Oc6ccc(C#N)c(Cl)c6)CC5)nn3)C4)cc1)=NC(C(F)(F)F)c1nnc(C)n1-2` (single isomer, unassigned) [I-719], the figures for the GI50 (in test [1]; in test [2]; in the test with VCaP cells) were less than 500 nM, more than 3000 nM and less than 500 nM, respectively.

With `Cc1sc2c(c1C)C(c1ccc(N3CCC4(CC3)CCN(c3ccc(C(=O)N[C@H]5CC[C@H](Oc6ccc(C#N)c(Cl)c6)CC5)nn3)C4)cc1)=NC(C(F)(F)F)c1nnc(C)n1-2` (single isomer, unassigned) [I-720], the GI50 (in test [1]; in test [2]; in the test with VCaP cells) was more than 3000 nM each time.

With `Cc1sc2c(c1C)C(c1ccc(N3CCOC4(CCN(c5ccc(C(=O)N[C@H]6CC[C@H](Oc7ccc(C#N)c(Cl)c7)CC6)nn5)C4)C3)cc1)=N[C@@H](C)c1nnc(C)n1-2` (single isomer, unassigned) [I-827], the GI50 was less than 500 nM in test [1] (72 h); less than 500 nM in test [2] (72 h); less than 500 nM with VCaP cells (Homo sapiens, VCaP, 72 h).

With `Cc1sc2c(c1C)C(c1ccc(Cl)cc1)=N[C@@H](CC(=O)NCCOCCOCCOCCOCCOCCOCCOC1CCN(c3ccc(C(=O)N[C@H]4CC[C@H](Oc5ccc(C#N)c(Cl)c5)CC4)nn3)CC1)c1nnc(C)n1-2` [I-4, N-[4-(3-chloro-4-cyano-phenoxy)cyclohexyl]-6-[14-[2-[2-[2-[2-[2-[2-[2-[[2-[(9S)-7-(4-chlorophenyl)-4,5,13-trimethyl-3-thia-1,8,11,12-tetrazatricyclo[8.3.0.2,6]trideca-2(6),4,7,10,12-pentaen-9-yl]acetyl]amino]ethoxy]ethoxy]ethoxy]ethoxy]ethoxy]ethoxy]ethoxy]-1-piperidyl]pyridazine-3-carboxamide], the GI50 is 500 to 1500 nM in test [1] (72 h); more than 3000 nM in test [2] (72 h); less than 500 nM in the test with VCaP cells (Homo sapiens, VCaP, 72 h).

Take `Cc1sc2c(c1C)C(c1ccc(Cl)cc1)=N[C@@H](CC(=O)NCCCCCOC1CCN(c3ccc(C(=O)N[C@H]4CC[C@H](Oc5ccc(C#N)c(Cl)c5)CC4)nn3)CC1)c1nnc(C)n1-2` [I-5]: the GI50 was less than 500 nM in test [1] (72 h); less than 500 nM in test [2] (72 h); less than 500 nM in the test on VCaP cells (Homo sapiens, VCaP, 72 h).

For the compound `CCNC(=O)C[C@@H]1N=C(c2cccc(OCCOCCOCCOC3CCN(c4ncc(C(=O)N[C@H]5CC[C@H](Oc6ccc(C#N)c(Cl)c6)CC5)cn4)CC3)c2)c2c(sc(C)c2C)-n2c(C)nnc21` [I-11], the GI50 in test [1] (72 h) is less than 500 nM; in test [2] (72 h) it was more than 3000 nM; in the test on VCaP cells (Homo sapiens, VCaP, 72 h), 500 to 1500 nM.

Consider `Cc1sc2c(c1C)C(c1ccc(C#CC3CC4(CCCN(c5ccc(C(=O)N[C@H]6CC[C@H](Oc7ccc(C#N)c(Cl)c7)CC6)nn5)C4)C3)cc1)=NC1(CC1)c1nnc(C)n1-2` (some centres unmarked) [I-445], for which the GI50 in test [2] (72 h) was more than 3000 nM; with VCaP cells (Homo sapiens, VCaP, 72 h) it was less than 500 nM.

Take `Cc1sc2c(c1C)C(c1ccc(N3CCC4(CCN(c5ccc(C(=O)N[C@H]6CC[C@H](Oc7ccc(C#N)c(Cl)c7)CC6)nn5)C4)C3)cc1)=N[C@@H](C)c1nnc(C)n1-2` (some centres unmarked) [I-512]: the GI50 is less than 500 nM in test [2] (72 h) and less than 500 nM in the test with VCaP cells (Homo sapiens, VCaP, 72 h).

Take `Cc1sc2c(c1C)C(c1ccc(CC3CC(OC4CCN(c5ccc(C(=O)NC6CCC(Oc7ccc(C#N)c(Cl)c7)CC6)nn5)CC4)C3)cc1)=NC(C)c1nnc(C)n1-2` (centres unmarked) [I-588]: the GI50 in the test on VCaP cells (Homo sapiens, VCaP, 72 h) was less than 500 nM.

For `COC[C@@H]1N=C(c2ccc(C3CCC4(CC3)CCN(c3ccc(C(=O)N[C@H]5CC[C@H](Oc6ccc(C#N)c(Cl)c6)CC5)nn3)C4)cc2)c2c(sc(C)c2C)-n2c(C)nnc21` (some centres unmarked) [I-601], the 50% growth inhibitory concentration (GI50) in test [1] (72 h) was less than 500 nM; in the test on VCaP cells (Homo sapiens, VCaP, 72 h), less than 500 nM.

Turning to `Cc1sc2c(c1C)C(c1ccc(N3C[C@@H]4CN(c5ccc(C(=O)N[C@H]6CC[C@H](Oc7ccc(C#N)c(Cl)c7)CC6)nn5)C[C@H]4C3)cc1)=N[C@@H](C)c1nnc(C)n1-2` [I-677], the GI50 is less than 500 nM in test [1] (72 h) and less than 500 nM with VCaP cells (Homo sapiens, VCaP, 72 h).

In the case of `COC[C@@H]1N=C(c2ccc(OC3CC4(CCCN(c5ccc(C(=O)N[C@H]6CC[C@H](Oc7ccc(C#N)c(Cl)c7)CC6)nn5)C4)C3)cc2)c2c(sc(C)c2C)-n2c(C)nnc21` (some centres unmarked) [I-693], the 50% growth inhibitory concentration (GI50) is less than 500 nM in test [2] (72 h) and less than 500 nM in the test with VCaP cells (Homo sapiens, VCaP, 72 h).
